# Measured values reported in patent US9452196B2, “Pharmaceutical composition for treating medical conditions and a method for treating alimentary disorders and related diseases” (SOCIEDADE BENEFICENTE DE SENHORAS HOSPITAL SIRIO LIBANES, priority 2009, dated 2016).
# Where two headings read alike, the source gives them in different places.
# What was measured:
# CB1 receptor [1] = molecular target: T1, CB1 receptor (Homo sapiens, UniProt P21554); format: biochemical; settings: for percentage of activity as compared to the control group: CB1
# Text: (§1) Next the selectivity of hemopressin for CB1 receptors was examined using antibodies sensitive to the conformations of mu and delta opiod receptors, alpha-2A and beta-2 adrenergic receptors, as well as type 1 and 2 Angiotensin II receptors.
# 2A neural cells = experiment: growth of neurites in 2A neural cells; format: cell-based; settings: FIG. 3D; for basal growth of neurites: substance alone
# [2] = molecular target: T2, alpha-2A adrenergic receptor (Homo sapiens, UniProt P08913); experiment: recognition by conformation-sensitive receptor antibody; format: biochemical
# T2 sequence (P08913 1-465): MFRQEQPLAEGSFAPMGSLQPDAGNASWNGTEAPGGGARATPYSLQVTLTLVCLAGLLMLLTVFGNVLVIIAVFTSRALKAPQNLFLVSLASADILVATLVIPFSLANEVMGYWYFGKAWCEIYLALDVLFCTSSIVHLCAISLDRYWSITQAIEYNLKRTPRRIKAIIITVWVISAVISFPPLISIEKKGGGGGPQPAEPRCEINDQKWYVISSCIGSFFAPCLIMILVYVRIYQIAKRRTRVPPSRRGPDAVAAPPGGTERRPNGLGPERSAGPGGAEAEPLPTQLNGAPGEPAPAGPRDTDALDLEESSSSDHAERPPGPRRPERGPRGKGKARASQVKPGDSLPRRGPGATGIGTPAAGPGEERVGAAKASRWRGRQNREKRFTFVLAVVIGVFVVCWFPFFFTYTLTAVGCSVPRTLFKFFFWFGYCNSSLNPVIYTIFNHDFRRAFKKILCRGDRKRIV
# Text: as §1, with “receptors. In the following table, it is possible to identify the specificity of the peptide hemopressin for the CB1 receptor. […] The following data presents the percentage of activity as compared to the control group: […]” for “receptors.”
# [3] = molecular target: beta-2 adrenergic receptor (Homo sapiens, UniProt P07550); experiment: as above; format: biochemical
# Text: as §1, with “receptors. In the following table, it is possible to identify the specificity of the peptide hemopressin for the CB1 receptor. […] The following data presents the percentage of activity as compared to the control group: […]” for “receptors.”
# delta opioid receptor = delta opioid receptor (Homo sapiens, UniProt P41143); experiment: as above; format: biochemical
# Text: as §1, with “receptors. In the following table, it is possible to identify the specificity of the peptide hemopressin for the CB1 receptor. […] The following data presents the percentage of activity as compared to the control group: […]” for “receptors.”
# mu opioid receptor = mu opioid receptor (Homo sapiens, UniProt P35372); experiment: as above; format: biochemical
# Text: as §1, with “receptors. In the following table, it is possible to identify the specificity of the peptide hemopressin for the CB1 receptor. […] The following data presents the percentage of activity as compared to the control group: […]” for “receptors.”
# [4] = molecular target: T3, type 1 Angiotensin II receptor (AT1) (Homo sapiens, UniProt P30556); experiment: as above; format: biochemical
# T3 sequence (P30556 1-359): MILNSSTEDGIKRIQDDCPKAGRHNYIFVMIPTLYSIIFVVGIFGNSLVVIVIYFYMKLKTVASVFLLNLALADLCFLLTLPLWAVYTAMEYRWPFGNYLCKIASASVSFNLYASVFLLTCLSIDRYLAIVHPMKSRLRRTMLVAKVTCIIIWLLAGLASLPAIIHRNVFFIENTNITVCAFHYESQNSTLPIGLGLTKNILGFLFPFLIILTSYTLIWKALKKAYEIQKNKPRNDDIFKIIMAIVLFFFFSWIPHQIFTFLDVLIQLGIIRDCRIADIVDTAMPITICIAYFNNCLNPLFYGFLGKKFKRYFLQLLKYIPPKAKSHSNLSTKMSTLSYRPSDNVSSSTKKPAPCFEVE
# Text: as §1, with “receptors. In the following table, it is possible to identify the specificity of the peptide hemopressin for the CB1 receptor. […] The following data presents the percentage of activity as compared to the control group: […]” for “receptors.”
# [5] = molecular target: T4, type 2 Angiotensin II receptor (AT2) (Homo sapiens, UniProt P50052); experiment: as above; format: biochemical
# T4 sequence (P50052 1-363): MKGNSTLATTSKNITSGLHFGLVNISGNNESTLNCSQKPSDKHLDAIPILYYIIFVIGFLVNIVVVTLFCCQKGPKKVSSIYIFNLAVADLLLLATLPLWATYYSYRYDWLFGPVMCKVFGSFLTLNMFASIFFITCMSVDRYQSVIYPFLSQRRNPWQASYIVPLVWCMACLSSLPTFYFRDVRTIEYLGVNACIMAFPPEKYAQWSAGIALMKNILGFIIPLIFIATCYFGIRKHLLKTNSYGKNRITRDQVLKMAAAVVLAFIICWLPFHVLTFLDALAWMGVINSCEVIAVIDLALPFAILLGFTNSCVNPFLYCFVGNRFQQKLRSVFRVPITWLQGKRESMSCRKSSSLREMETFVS
# Text: as §1, with “receptors. In the following table, it is possible to identify the specificity of the peptide hemopressin for the CB1 receptor. […] The following data presents the percentage of activity as compared to the control group: […]” for “receptors.”
# CB1 receptor [6] = molecular target: T1, CB1 receptor; experiment: displacement of the ligand rimonabant from CB1 receptors; format: binding; settings: FIG. 2A
# CB1 receptor [7] = molecular target: T1, CB1 receptor; format: biochemical
# Protocol: A test was then designed, the results of which are illustrated in FIG. 2B, to determine if hemopressin could block the signaling of CB1 receptor. […] Finally, a test was designed to measure whether hemopressin is capable of blocking the increase of levels of phosphorylated ERK1 and ERK2.
# Hemopressin was also determined to not only act as an antagonist but as an inverse agonist of CB1 receptors. This was further explored by studying the binding of GTPgammaS, adenylate cyclase activity and MAP kinase phopshorylation. […] This can clearly be seen in FIGS. 3A-C.
# male Wistar rats = experiment: fat content and body weight in male Wistar rats on 63-day diet; format: in vivo, rat; settings: once a day for three days; for Body Weight (% of Control) / Periepididymal Adipose Tissue Weight / Retroperitoneal Adipose Tissue Weight / Visceral Adipose Tissue Weight: 63-day ad libitum diet
# rats [8] = experiment: body weight and fat content after oral administration; format: in vivo, rat; settings: for Body Weight (% of Control) / Periepididymal Adipose Tissue Weight / Retroperitoneal Adipose Tissue Weight / Visceral Adipose Tissue Weight: rats
# rats [9] = experiment: standard swimming test for depression; format: in vivo, rat; settings: hemopressin 1 mg/Kg, FIG. 5
# diet induced obese rats = experiment: insulin sensitivity in diet induced obese rats; format: in vivo, rat; settings: 50 micrograms/Kg and 1 mg/Kg hemopressin, FIG. 6
# CB1 receptor [10] = molecular target: T1, CB1 receptor; settings: literature; cited from earlier work
# [11] = cited from earlier work
# CB1 receptor [12] = molecular target: T1, CB1 receptor; settings: in vitro, Dodd et al.; cited from earlier work
# rats and mice = settings: Dodd et al., cited from earlier work
# rodents and humans = settings: literature; cited from earlier work
# male Zucker rats = experiment: fat content in male Zucker rats after intraperitoneal administration; format: in vivo, rat; settings: intraperitoneal 50 micrograms/Kg once a day for three days
# Protocol: Experiments were also conducted on genetically obese and diet-induced rats of another species. Male Zucker rats were maintained on a 12 hour light/dark cycle. The rats were divided into two groups that receive once a day for three days either intraperiotoneal administration of 50 micrograms/Kg body weight of HPW2 or saline.
# T1 sequence (P21554 whole entry): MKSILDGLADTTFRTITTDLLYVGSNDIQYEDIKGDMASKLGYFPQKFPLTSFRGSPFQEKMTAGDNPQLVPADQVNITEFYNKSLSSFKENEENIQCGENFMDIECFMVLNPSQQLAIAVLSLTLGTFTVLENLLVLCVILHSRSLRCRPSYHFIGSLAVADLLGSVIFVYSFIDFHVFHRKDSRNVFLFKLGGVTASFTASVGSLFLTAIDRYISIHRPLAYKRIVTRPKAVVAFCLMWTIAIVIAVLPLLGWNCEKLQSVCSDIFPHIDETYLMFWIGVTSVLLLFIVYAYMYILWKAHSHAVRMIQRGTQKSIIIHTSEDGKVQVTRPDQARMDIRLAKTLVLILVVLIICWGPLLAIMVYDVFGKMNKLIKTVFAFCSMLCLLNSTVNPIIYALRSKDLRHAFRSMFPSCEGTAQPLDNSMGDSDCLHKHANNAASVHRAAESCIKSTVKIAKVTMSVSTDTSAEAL
# Sequence of mu opioid receptor (P35372 whole entry): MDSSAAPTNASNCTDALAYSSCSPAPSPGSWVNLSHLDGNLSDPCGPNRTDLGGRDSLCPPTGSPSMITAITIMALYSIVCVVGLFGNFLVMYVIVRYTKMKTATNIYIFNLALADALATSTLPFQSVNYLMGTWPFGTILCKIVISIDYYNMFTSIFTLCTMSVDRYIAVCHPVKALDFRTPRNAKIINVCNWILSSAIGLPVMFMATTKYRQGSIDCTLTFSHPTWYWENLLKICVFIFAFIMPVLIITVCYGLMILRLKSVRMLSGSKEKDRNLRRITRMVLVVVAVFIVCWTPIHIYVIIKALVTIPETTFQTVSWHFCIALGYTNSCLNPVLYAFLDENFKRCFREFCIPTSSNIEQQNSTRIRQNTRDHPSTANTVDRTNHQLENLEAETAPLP
# Sequence of delta opioid receptor (P41143 whole entry): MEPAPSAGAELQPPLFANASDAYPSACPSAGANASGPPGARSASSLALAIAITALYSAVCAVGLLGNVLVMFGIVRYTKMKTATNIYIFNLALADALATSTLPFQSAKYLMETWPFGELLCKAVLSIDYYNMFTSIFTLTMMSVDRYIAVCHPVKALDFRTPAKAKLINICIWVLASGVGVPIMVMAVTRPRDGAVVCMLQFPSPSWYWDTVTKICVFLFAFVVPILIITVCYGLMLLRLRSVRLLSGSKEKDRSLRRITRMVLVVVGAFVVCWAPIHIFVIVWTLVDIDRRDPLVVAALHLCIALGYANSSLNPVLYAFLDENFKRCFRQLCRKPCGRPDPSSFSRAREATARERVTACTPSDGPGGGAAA
# Sequence of beta-2 adrenergic receptor (P07550 whole entry): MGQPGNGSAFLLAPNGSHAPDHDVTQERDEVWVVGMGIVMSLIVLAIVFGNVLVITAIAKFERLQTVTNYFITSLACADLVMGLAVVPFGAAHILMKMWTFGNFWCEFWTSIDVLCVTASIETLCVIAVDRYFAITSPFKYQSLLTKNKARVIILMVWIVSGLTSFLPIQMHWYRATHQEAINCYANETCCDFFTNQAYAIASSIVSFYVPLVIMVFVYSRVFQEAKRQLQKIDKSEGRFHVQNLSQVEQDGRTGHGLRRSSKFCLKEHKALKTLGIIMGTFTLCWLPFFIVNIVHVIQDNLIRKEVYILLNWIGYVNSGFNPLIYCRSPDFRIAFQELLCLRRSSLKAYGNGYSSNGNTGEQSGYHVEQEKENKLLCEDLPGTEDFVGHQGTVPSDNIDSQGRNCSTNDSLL
molecule,measurement,setting,value
"CCCCCCC(C)(C)c1cc(O)c2c(c1)OC(C)(C)[C@@H]1CC=C(CO)C[C@@H]21 [HU-210, reference compound]",recognition of a CB1 specific antibody,CB1 receptor [1],increase
same,basal growth of neurites,2A neural cells,induction of the growth of neurites
CC(C)C[C@H](NC(=O)[C@H](Cc1ccccc1)NC(=O)[C@H](CCCCN)NC(=O)[C@H](Cc1ccccc1)NC(=O)[C@H](CC(N)=O)NC(=O)[C@@H](NC(=O)C1CCCN1)C(C)C)C(=O)N[C@@H](CO)C(=O)N[C@@H](Cc1cnc[nH]1)C(=O)O (stereo partly drawn) [hemopressin],block of the HU-210 induced increase in the recognition of the antibody,CB1 receptor [1],significantly blocked
same,percentage of activity as compared to the control group,CB1 receptor [1]; agonist and HP together,102.06 ± 5.91%
same,percentage of activity as compared to the control group,CB1 receptor [1]; hemopressin alone,72.30 ± 3.32%
same,recognition of a CB1 specific antibody,"CB1 receptor [1]; substance alone, FIG. 1A/1B",decrease the recognition of a CB1 specific antibody
same,selectivity for CB1 receptors,"CB1 receptor [1]; versus mu and delta opioid, alpha-2A, beta-2, AT1, AT2 receptors",highly selective for CB1 receptors
same,percentage of activity as compared to the control group,[2]; agonist and HP together,130.05 ± 7.06%
same,percentage of activity as compared to the control group,[2]; hemopressin alone,102.72 ± 2.00%
same,percentage of activity as compared to the control group,[3]; agonist and HP together,157.40 ± 8.15%
same,percentage of activity as compared to the control group,[3]; hemopressin alone,103.85 ± 9.29%
same,percentage of activity as compared to the control group,delta opioid receptor; agonist and HP together,131.08 ± 3.35%
same,percentage of activity as compared to the control group,delta opioid receptor; hemopressin alone,100.65 ± 4.29%
same,percentage of activity as compared to the control group,mu opioid receptor; agonist and HP together,141.09 ± 6.46%
same,percentage of activity as compared to the control group,mu opioid receptor; hemopressin alone,105.62 ± 1.09%
same,percentage of activity as compared to the control group,[4]; agonist and HP together,140.01 ± 1.21%
same,percentage of activity as compared to the control group,[4]; hemopressin alone,109.65 ± 1.31%
same,percentage of activity as compared to the control group,[5]; agonist and HP together,137.10 ± 1.91%
same,percentage of activity as compared to the control group,[5]; hemopressin alone,99.65 ± 4.71%
same,displacement of rimonabant from CB1 receptors,CB1 receptor [6],capable of displacing rimonabant from CB1 receptors
same,block of the increase of GTPgammaS,CB1 receptor [7],capable of blocking the increase of GTPgammaS
same,block of the increase of levels of phosphorylated ERK1 and ERK2,CB1 receptor [7],behave similarly to rimonabant
same,block of decreases in cAMP levels,"CB1 receptor [7]; against agonists, FIG. 2C",block decreases in cAMP levels with efficiency similar to that of rimonabant
same,"basal signaling, binding of GTPgammaS","CB1 receptor [7]; without agonist, FIG. 3A",causes decreases in signaling below the basal levels
same,"basal signaling, adenylate cyclase activity","CB1 receptor [7]; without agonist, FIG. 3B",causes decreases in signaling below the basal levels
same,"basal signaling, MAP kinase phosphorylation","CB1 receptor [7]; without agonist, FIG. 3C",causes decreases in signaling below the basal levels
same,growth of neurites as measured against agonists,2A neural cells,efficiently blocks the growth of neurites
same,basal growth of neurites,2A neural cells,capable of decreasing the basal growth of neurites
same,Body Weight (% of Control),male Wistar rats,98.62 ± 13.33 % of Control
same,Periepididymal Adipose Tissue Weight,male Wistar rats,4.77 ± 1.06 g
same,Retroperitoneal Adipose Tissue Weight,male Wistar rats,6.12 ± 2.09 g
same,Visceral Adipose Tissue Weight,male Wistar rats,2.77 ± 0.58 g
same,periepididymal and visceral fat content compared to saline control,male Wistar rats,significantly reduced periepididymal and visceral fat content
same,retroperitoneal fat content,rats [8],significantly reduced by hemopressin only
same,total body weight and periepididymal fat content,rats [8],significantly reduce
same,Body Weight (% of Control),rats [8],96.89 ± 1.25 % of Control
same,Periepididymal Adipose Tissue Weight,rats [8],7.16 ± 1.36 g
same,Retroperitoneal Adipose Tissue Weight,rats [8],6.26 ± 1.62 g
same,Visceral Adipose Tissue Weight,rats [8],4.31 ± 0.61 g
same,symptoms of depression in standard swimming test,rats [9],showed no such symptoms
same,insulin sensitivity,diet induced obese rats,significantly improved insulin sensitivity
same,action at the CB1 receptor,CB1 receptor [10],CB1 receptor inverse agonist
same,antinociceptive effects,"[11]; Dale et al., literature",nonopioid antinociceptive effects
same,treatment of hyperalgesia,"[11]; administered locally or systemically, Heimann et al.",effective in treating hyperalgesia
same,CB1 agonist-induced internalization of the CB1 receptor,CB1 receptor [12],antagonize CB1 agonist-induced internalization of the CB1 receptor in vitro
same,food intake,rats and mice; administered centrally,induce hypophagia in vivo when administered centrally
same,food intake,rats and mice; administered systemically,induce hypophagia in vivo when administered systemically
"Cc1c(C(=O)NN2CCCCC2)nn(-c2ccc(Cl)cc2Cl)c1-c1ccc(Cl)cc1 [rimonabant, reference compound]",growth of neurites as measured against agonists,2A neural cells,efficiently blocks the growth of neurites
same,Body Weight (% of Control),rats [8],98.92 ± 0.95 % of Control
same,Periepididymal Adipose Tissue Weight,rats [8],5.57 ± 1.03 g
same,Retroperitoneal Adipose Tissue Weight,rats [8],6.89 ± 1.31 g
same,Visceral Adipose Tissue Weight,rats [8],3.91 ± 0.78 g
same,symptoms of depression in standard swimming test,rats [9],caused the expected depression
same,insulin sensitivity,diet induced obese rats,did not produce similar results
same,weight reduction,rodents and humans,weight-reducing effects over extended periods
PVNFKWLSH [HPW2],Body Weight (% of Control),male Wistar rats,95.47 ± 15.44 % of Control
same,Periepididymal Adipose Tissue Weight,male Wistar rats,4.01 ± 0.33 g
same,Retroperitoneal Adipose Tissue Weight,male Wistar rats,5.37 ± 1.11 g
same,Visceral Adipose Tissue Weight,male Wistar rats,2.63 ± 0.94 g
same,periepididymal and visceral fat content compared to saline control,male Wistar rats,significantly reduced periepididymal and visceral fat content
same,retroperitoneal fat content,male Zucker rats,significant reduction in retroperitoneal fat content
same,total body weight and periepididymal fat content,rats [8],significantly reduce
same,Body Weight (% of Control),rats [8],96.71 ± 2.03 % of Control
same,Periepididymal Adipose Tissue Weight,rats [8],7.32 ± 1.22 g
same,Retroperitoneal Adipose Tissue Weight,rats [8],7.19 ± 1.50 g
same,Visceral Adipose Tissue Weight,rats [8],4.28 ± 0.59 g
same,insulin sensitivity,diet induced obese rats,significantly improved insulin sensitivity
"VDPENFRLLGNM (listed as Rattus sp.) [non-cannabinoid peptide, reference compound]",fat content,rats [8],no effect
same,Body Weight (% of Control),rats [8],100.65 ± 8.07 % of Control
same,Periepididymal Adipose Tissue Weight,rats [8],9.38 ± 0.95 g
same,Retroperitoneal Adipose Tissue Weight,rats [8],8.80 ± 1.15 g
same,Visceral Adipose Tissue Weight,rats [8],4.81 ± 1.25 g
